{"source": "patent US4835185A", "about": "“Immunomodulator for improving commercial performance of domestic animals” (Iowa State University Research Foundation, Inc., priority 1987, dated 1989)", "key": {"[1]": {"assay": "Dairy Cattle Trial: nitrogen balance, milk production and composition", "type": "in vivo, Holstein and Brown Swiss cows (cattle)", "excerpt": "Eight Holstein and four Brown Swiss cows were assigned randomly (blocking for lactation number and breed) to either a control or treatment group. Four of the Holsteins and two of the Brown Swiss were in their first lactation and all cows were between 134-283 days into lactation (mid-lactation). Cows were milked twice daily (2:30 a.m. and 2:00 p.m.).\nCows were fed ad libitum a total mixed ration twice daily (7:30 a.m. and 5:30 p.m.) with feed refusals collected before the morning feeding. The diet consisted of 31% chopped alfalfa hay, 18% corn silage, and […] (as a % of the dry matter). The grain mix was calculated to contain 1.55 Mcal NE/kg dry matter and 16% crude protein. A major portion of the grain protein was from expeller processed soybean meal with higher than usual bypass characteristics. The cows were consuming protein in excess of their normal requirements. The grain ration contained an estimated 10% leucine (total protein basis), and the complete diet contained an estimated 9% leucine (total protein basis).\nDuring the treatment period half the cows received Na-KIC at 0.75% of the diet dry matter. KIC was fed in a mixture which consisted of Na-KIC, corn gluten meal, hydrogenated soy oil and paraffin in a ratio of 2:1.0:0.1:0.1. The mixture was extruded and formed into crumbles. At least part of the KIC may have escaped rumen degradation with this treatment. Additionally, 100 units of tocopherol were added per gram of Na--KIC to prevent oxidation of KIC. Control animals were fed an equivalent amount of the same mixture but without KIC added.\nDuring the first two weeks of the experiment (control period; designated weeks -2 and -1), all cows received the same diet. The trial period extended over the next three weeks (weeks 1, 2, 3) during which cows received either the KIC or control mix top-dressed on their diets twice per day (half the dose in the morning, half in the evening). Throughout the experiment, daily milk yield, milk composition, and feed consumption was measured for each cow. At the end of the control period and at the end of the treatment period, uninary catheters were inserted and total urine and fecal collections were made for 48 hrs. Results of production and nitrogen balance studies were analyzed statistically using each cow as her own control. The trial effect was measured by subtracting the average control period value from the value during the treatment period. ANOVA was used to detect differences between the KIC-fed and control groups."}, "T lymphocytes": {"test_system": "T lymphocytes", "assay": "Lamb Trial 2: lymphocyte blastogenesis (3H-thymidine, phytohemaglutinin)", "type": "cell-based, lambs (sheep)", "conditions": "1% KIC, * p<.05", "excerpt": "The lambs used in Trial 1 consisted of medium-frame crossbred wethers and ewes weighing 26 to 31 kg. The lambs used in Trial 2 consisted of medium-framced crossbred rams weighing 18 to 25 kg. Each animal was raised as a single. The lambs were housed in a temperature controlled room in individual pens with nipple waterers. When received, the lamps were vaccinated for enterotoxemia. They were allowed to adjust to the pens and the environment for 10 days. One day before the trial began, the lambs were sheared and placed on their respective dietary treatments. The lamps were allotted blocking by weight and sex into two dietary treatment groups. Growth and feed consumption were measured bi-weekly. All lamb weights were taken after a 12 to 16 hour fast. The animals were slaughtered at 50 kg in the Iowa State University Meat laboratory facilities at Ames, Iowa. At slaughter, the lamb's internal organs and wool were weighed and sampled, loin eye area and back fat measured, and carcasses separated into fat, lean, and bone.\n^(9) Lymphocyte blastogenesis measured by amount of ^3\nH--thymidine incorporated per 2 hrs. of incubation in the presence of\nphytohemaglutinin (a mitogen that stimulates Tlymphocyte division)."}, "lymphocytes": {"test_system": "lymphocytes", "assay": "Study of Immune Function: lymphocyte blastogenesis, sheep (experiments 1 and 2)", "type": "cell-based, lambs (sheep)", "protocol": "A study was conducted to determine if KIC administration can alter white blood cell function, specifically T lymphocyte function, in growing sheep and cattle. Eighteen medium-framed crossbred male lambs were used in experiment 1. Lambs were randomly assigned to either a control diet (n=10) or a diet supplemented with 1% KIC (n=8). Animals were fed ad libitum in individual cages. At 100 and 108 days of treatment, 50-ml blood samples were collected for lymphocyte and neutrophil function tests.\nIn experiment 2, 19 intact crossbred male lambs were randomly assigned to either a saline treatment group (n=9) or a KIC treatment group (n=10). Control lambs were injected with 50 ml of a saline solution, and KIC treated lambs were injected with 50 ml of a 5% solution of KIC (sodium salt) daily (~2.5 g KIC/day). All injections were made intraperitoneally in the right posterior abdominal region after disinfection of the area. At day 60 and day 66 of treatment, blood was collected for lymphocyte and neutrophil function tests.\nSheep in experiments 1 and 2 were fed diets based on a mixture of 48% corn, 5% molasses, 20% alfalfa meal, 0.8% limestone, 0.6% salt-mineral-vitamin mix and ~25% of a protein supplement (either soybean meal, corn gluten meal, or corn gluten feed). The diets were isonitrogenous and analyzed to be ~20% crude protein and 89% dry matter. The KIC diet consisted of the basal diet to which was added 1% calcium-KIC, whereas the control diet was the basal diet plus 0.25% calcium carbonate.\nBlood was collected by jugular venapuncture into acid-citrate-dextrose anticoagulant. Lymphocytes and neutrophils were isolated, and lymphocyte blastogenesis and neutrophil function evaluated. KIC was obtained from SOBAC, Paris, France. […] Each experiment was statistically analyzed by analysis of variance. In sheep experiments, individual animals were the experimental units, whereas pen means were analyzed in the cattle experiment.\n^1 Background (BKG), phytohemagglutininstimulated (PHA), concanavalin\nAstimulated (ConA), and pokeweed mitogenstimulated (PWM) blastogenesis\nwere determined by measuring the incorporation ^3 H thymidine into"}, "plasma cortisol": {"test_system": "plasma cortisol", "assay": "Plasma cortisol in pigs after test meals", "type": "in vivo", "description": "To determine if KIC could acutely alter cortisol concentrations, young pigs were fed meals supplemented with leucine or KIC and plasma cortisol was measured.\nIn experiment 1, sixteen female pigs weighing 20-30 kg were used. Seven days before study, catheters were surgically placed in the right atria for blood sampling. Animals were housed in individual cages during the recovery period and had free access to water. Preceding the experiment, animals were fed twice daily a basal diet (2% of body weight per feeding). The basal diet consisted of a corn-soybean mix, adequate in all minerals and vitamins and containing approximately 14% crude protein. Test meals were formulated by additions to a basal diet. Five animals received the basal diet (control); five animals received the leucine meal, which had 2% leucine added to the basal diet; and six animals received the KIC diet, which had 2% KIC (sodium salt equivalent to 1.7% free acid) added to the basel diet. Studies were begun between 0800 and 0900 h after a 24-hr fast. Basal blood samples were taken at -20, -10 and -5 min. Animals were then offered 100 g of their respective test meal (time 0). Pigs were included in the study only if they consumed the entire meal in the first 20 min. […] Plasma was separated, Trasylol (FBA Pharmaceuticals, New York, NY) added (50 ul/ml), and plasma stored at -70 C. until analyzed.\nCortisol was measured by coated tube kits (Gammacoat, Travenol-Genetech Diagnostics, Cambridge, MA). Leucine and KIC were measured by high pressure liquid chromatography. Crystalline leucine was obtained from Sigma Chemical (St. Louis, MO) and KIC-sodium was obtained from SOBAC (Paris, France). Statistical analysis of the individual pig responses was conducted on mean plasma concentrations before the meal (-20 to 0 min) and after the meal (120 to 240 min). When the overall treatment F-value was significant, differences between individual treatments were determined using the pooled SEM and a T-test."}, "[2]": {"conditions": "Na-KIC 0.75% of diet dry matter, pre 186"}}}
{"smiles": "CC(C)CC(=O)C(=O)O", "note": "[KIC, alpha-ketoisocaproate]", "values": [{"measurement": "Feces output, Change", "setting": "[1]; KIC group, control +1", "result": -6, "unit": "g N/day"}, {"measurement": "Milk output, Change", "setting": "[1]; KIC group, control +3", "result": "+9 g N/day"}, {"measurement": "Urine output, Change", "setting": "[1]; KIC group, control +15", "result": 0, "unit": "g N/day"}, {"measurement": "Body storage (N balance), Change", "setting": "[1]; KIC group, control +18", "result": "+26 g N/day"}, {"measurement": "Feed intake, Change", "setting": "[1]; KIC group, control +37", "result": "+28 g N/day"}, {"measurement": "Milk fat yield, Change", "setting": "[1]; KIC group, control +.00", "result": "+.09 kg/day"}, {"measurement": "Milk fat percent, Change", "setting": "[1]; KIC group, control +.03", "result": "+.21%"}, {"measurement": "Milk protein percent, Change", "setting": "[1]; KIC group, control +.13", "result": "+.11%"}, {"measurement": "Milk yield, Change", "setting": "[1]; KIC group, control -.13", "result": "+.97 kg/day"}, {"measurement": "Milk protein percent, Post", "setting": "[1]; Na-KIC 0.75% of diet dry matter, pre 3.35", "result": 3.46, "unit": "%"}, {"measurement": "Milk fat percent, Post", "setting": "[1]; Na-KIC 0.75% of diet dry matter, pre 4.07", "result": 4.27, "unit": "%"}, {"measurement": "Milk yield, Post", "setting": "[1]; Na-KIC 0.75% of diet dry matter, pre 23.0", "result": 23.9, "unit": "kg/day"}, {"measurement": "Body storage (N balance), Post", "setting": "[1]; Na-KIC 0.75% of diet dry matter, pre 34", "result": 60, "unit": "g N/day"}, {"measurement": "Milk output, Post", "setting": "[1]; Na-KIC 0.75% of diet dry matter, pre 131", "result": 140, "unit": "g N/day"}, {"measurement": "Feces output, Post", "setting": "[1]; [2]", "result": 180, "unit": "g N/day"}, {"measurement": "Urine output, Post", "setting": "[1]; [2]", "result": 186, "unit": "g N/day"}, {"measurement": "Feed intake, Post", "setting": "[1]; Na-KIC 0.75% of diet dry matter, pre 538", "result": 566, "unit": "g N/day"}, {"measurement": "Milk fat yield, Post", "setting": "[1]; Na-KIC 0.75% of diet dry matter, pre printed 92", "result": 1.00, "unit": "kg/day"}, {"measurement": "milk fat yield increase", "setting": "[1]; above controls, p<0.02", "result": 10, "unit": "%"}, {"measurement": "higher milk yields", "setting": "[1]; vs control cows", "result": "+5%"}, {"measurement": "higher percent milk fat", "setting": "[1]; vs control cows, p<0.04", "result": "+4%"}, {"measurement": "Body storage (N balance), % Change", "setting": "[1]; vs control, NS", "result": "+24%"}, {"measurement": "Body storage (N balance), KIC effect", "setting": "[1]; vs control, NS", "result": "+8 g N/day"}, {"measurement": "Feces output, % Change", "setting": "[1]; vs control, NS", "result": -4, "unit": "%"}, {"measurement": "Feces output, KIC effect", "setting": "[1]; vs control, NS", "result": -8, "unit": "g N/day"}, {"measurement": "Feed intake, % Change", "setting": "[1]; vs control, NS", "result": -2, "unit": "%"}, {"measurement": "Feed intake, KIC effect", "setting": "[1]; vs control, NS", "result": -9, "unit": "g N/day"}, {"measurement": "Milk output, % Change", "setting": "[1]; vs control, NS", "result": "+5%"}, {"measurement": "Milk output, KIC effect", "setting": "[1]; vs control, NS", "result": "+6 g N/day"}, {"measurement": "Milk protein percent, KIC effect", "setting": "[1]; vs control, NS", "result": "-.03%"}, {"measurement": "Urine output, % Change", "setting": "[1]; vs control, NS", "result": -85}, {"measurement": "Urine output, KIC effect", "setting": "[1]; vs control, NS", "result": -15, "unit": "g N/day"}, {"measurement": "Milk fat yield, % Change", "setting": "[1]; vs control, p < .01", "result": "+10.4%"}, {"measurement": "Milk fat yield, KIC effect", "setting": "[1]; vs control, p < .01", "result": "+.09 kg/day"}, {"measurement": "Milk fat percent, % Change", "setting": "[1]; vs control, p < .04", "result": "+4.3%"}, {"measurement": "Milk fat percent, KIC effect", "setting": "[1]; vs control, p < .04", "result": "+.17%"}, {"measurement": "Milk yield, % Change", "setting": "[1]; vs control, p < .15", "result": "+5.1%"}, {"measurement": "Milk yield, KIC effect", "setting": "[1]; vs control, p < .15", "result": "+1.10 kg/day"}, {"measurement": "LYMPHOCYTE BLASTOGENESIS: amount of 3H-thymidine incorporated per 2 hrs. of incubation", "setting": "T lymphocytes; Trial 2, CGM diet, phytohemaglutinin (0%: 6134)", "result": 18102}, {"measurement": "LYMPHOCYTE BLASTOGENESIS: amount of 3H-thymidine incorporated per 2 hrs. of incubation", "setting": "T lymphocytes; Trial 2, SBM diet, phytohemaglutinin (0%: 5993)", "result": 14625}, {"measurement": "BKG: background blastogenesis", "setting": "lymphocytes; Exp. 1, oral uncoated KIC 1% (control 466), p<.008", "result": "852 Counts/min per 2 × 10^5 cells"}, {"measurement": "PHA: phytohemagglutinin-stimulated blastogenesis", "setting": "lymphocytes; Exp. 1, oral uncoated KIC 1% (control 6100), p<.003", "result": "16800 Counts/min per 2 × 10^5 cells"}, {"measurement": "PWM: pokeweed mitogen-stimulated blastogenesis", "setting": "lymphocytes; Exp. 1, oral uncoated KIC 1% (control 19400), p<.77", "result": "17300 Counts/min per 2 × 10^5 cells"}, {"measurement": "ConA: concanavalin A-stimulated blastogenesis", "setting": "lymphocytes; Exp. 1, oral uncoated KIC 1% (control 41100), p<.81", "result": "44700 Counts/min per 2 × 10^5 cells"}, {"measurement": "BKG: background blastogenesis", "setting": "lymphocytes; Exp. 2, IP injected KIC (saline 752), p<.10", "result": "947 Counts/min per 2 × 10^5 cells"}, {"measurement": "PHA: phytohemagglutinin-stimulated blastogenesis", "setting": "lymphocytes; Exp. 2, IP injected KIC (saline 8500), p<.09", "result": "12600 Counts/min per 2 × 10^5 cells"}, {"measurement": "PWM: pokeweed mitogen-stimulated blastogenesis", "setting": "lymphocytes; Exp. 2, IP injected KIC (saline 21600), p<.72", "result": "29400 Counts/min per 2 × 10^5 cells"}, {"measurement": "ConA: concanavalin A-stimulated blastogenesis", "setting": "lymphocytes; Exp. 2, IP injected KIC (saline 31200), p<.87", "result": "33500 Counts/min per 2 × 10^5 cells"}, {"measurement": "increase of PHA stimulation", "setting": "lymphocytes; experiment 1, sheep, oral 1% KIC", "result": 280, "unit": "%"}, {"measurement": "increase of PHA stimulation", "setting": "lymphocytes; experiment 2, sheep, IP", "result": 150, "unit": "%"}, {"measurement": "decrease in cortisol concentration", "setting": "plasma cortisol; 2% KIC, by 240-300 minutes after the meal, p<0.01", "result": 40, "unit": "%"}, {"measurement": "Plasma cortisol, Change", "setting": "plasma cortisol; 2% in meal, control -0.09", "result": -1.99, "unit": "µg/dL"}, {"measurement": "Plasma cortisol, Post", "setting": "plasma cortisol; 2% in meal, pre: leucine 2.8, KIC 4.7, pooled SEM 0.49", "result": 2.9, "unit": "µg/dL"}]}
